Experimental data as given in PMC6400584, “Activation mechanism of ATP-sensitive K^+ channels explored with real-time nucleotide binding” (eLife, 2019).

Experiments:
[1] = tested on: SUR1/Kir6.2-G334D with K1384A (K2A) in NBS2; design: method as in Proks et al., 2014; settings: ref Proks et al., 2014; cited from earlier work
[2] = biological target: SUR1-Y1353*/Kir6.2 (NBS2 of SUR1) (Homo sapiens, UniProt Q09428, Y1353X); experiment: FRET binding of TNP-nucleotides to ANAP-labeled KATP in unroofed membrane fragments; settings: 10 mM unlabeled nucleotide
Description: Unroofed membranes were prepared using a modification of a protocol from the Heuser laboratory ([Heuser, 2000]; [Usukura et al., 2012]; [Zagotta et al., 2016]). Briefly, a coverslip containing adherent cells was removed from the cell culture medium and a small piece (0.5–1 cm) was broken off using jewelers forceps (#5) and washed in phosphate buffered saline (PBS, Thermo Fisher Scientific) diluted 1:3 in deionized water. Cells were exposed 3 × 10 s to a solution of 0.01% poly-L-lysine (Sigma) with intervening washes in diluted PBS to adhere them more firmly to the coverslips. The coverslip fragment was then placed in a 30 mm culture dish filled with 2–3 mL of 1/3X PBS and sonicated very briefly (~100 ms) using a probe sonicator (Vibra-cell; Newtown, CT), leaving behind adherent plasma membrane and sometimes additional cellular material. The unroofed fragments in our experiments were sometimes visible under bright-field illumination, a potential result of our modified ‘unroofing’ procedure. Morphologically, such cell fragments resemble the ‘partially unroofed’ cells identified by Usukura et al. ([Usukura et al., 2012]) Cells cultured on poly-D-lysine coated FluoroDishes were unroofed in diluted PBS with no additional poly-L-lysine treatment. This procedure yielded a higher percentage of completely unroofed plasma membranes (i.e. nearly invisible with brightfield illumination).
Unroofed membrane fragments were imaged directly on FluoroDishes (FD35-PDL-100, World Precision Instruments) or on broken coverslips placed in a FluoroDish (FD3510, World Precision instruments) using a Nikon TE2000-U microscope equipped with a 40x (S Fluor, 1.3 NA; Nikon, Kingston Upon Thames, UK) or 100x (Apo TIRF, 1.49 NA, Nikon) oil-immersion objective and low-fluorescence immersion oil (MOIL-30, Olympus; Southend-on-Sea, UK) or a 60x water immersion objective (Plan Apo VC, 1.20 NA, Nikon). ANAP was excited using a ThorLabs LED source (LED4D067) at 385 nm connected to the microscope using a liquid light guide in series with a 390/18 nm band-pass filter (MF390-18, ThorLabs; Newton, NJ) and MD416 dichroic (ThorLabs). For imaging, emitted light was filtered through a 479/40 nm band-pass filter (MF479-40, ThorLabs). GFP-tagged constructs were imaged using a similar setup with excitation at 490 nm, a 480/40 band-pass excitation filter (Chroma; Bellows Falls, VT), a DM505 dichroic mirror (Chroma), and 510 nm long-pass emission filter (Chroma). All images were acquired using a PIXIS 400B CCD camera (Princeton Instruments; Trenton, NJ). For spectroscopy, ANAP was excited as above, but emitted light was passed through a 400 nm long-pass filter (FEL0400, ThorLabs) and directed through the slit of an Isoplane 160 spectrometer (300 g/mm grating; Princeton Instruments) in series with the camera. The acquired images retained spatial information in the y-dimension, with the x-dimension replaced by wavelength (Figure 1—figure supplement 1a). Exposure times were typically 100 ms for brightfield images, 1–10 s for steady-state spectra and 1–5 s for time-course experiments.
To prevent accumulation of fluorescent nucleotides in the bath, FluoroDishes were perfused with either (in mM) 140 KCl, 20 NaCl, 10 MgCl2, 10 HEPES pH 7.2 with NaOH or 140 KCl, 20 NaCl, 1 EDTA, 10 HEPES pH 7.2 with NaOH using a peristaltic pump (Ismatec; Wertheim, Germany). Unroofed membranes were directly perfused with nucleotides using an 8-channel µFlow perfusion system (ALA Scientific Instruments; Farmingdale, NY). Solution change with the µFlow was rapid (τ = 0.73 s±0.02 s, n=5) as measured from single exponential fits to wash-out of 50 µM tetramethylrhodamine-5-maleimide (TMRM) after switching to a solution with no TMRM. TMRM was excited with a 565 nm LED with a D540/25X band-pass filter (Chroma) and DM565 dichroic mirror (Chroma). Emitted light was collected through a D605/55M band-pass filter (Chroma). […]

## Nc1ncnc2c1ncn2[C@@H]1O[C@H](COP(=O)([O-])OP(=O)([O-])O)[C@@H](O)[C@H]1O.[Mg+2] [MgADP]
[1]
  shift of concentration dependence of activation to higher concentrations by K2A mutation: > 20 fold
[2]
  ANAP fluorescence intensity relative to the original peak: 101 ± 2%
